Source: article PMC4069099, “Pharmacological Validation of an Inward-Rectifier Potassium (Kir) Channel as an Insecticide Target in the Yellow Fever Mosquito Aedes aegypti” (PLoS ONE, 2014)

Columns and labels:
Format in all cases: cell-based
[1] = target: T1, AeKir2B (Aedes aegypti, UniProt L0EQ40); experiment: two-electrode voltage clamp in Xenopus oocytes, activation of inward current at […]
T1 sequence (L0EQ40 1-489): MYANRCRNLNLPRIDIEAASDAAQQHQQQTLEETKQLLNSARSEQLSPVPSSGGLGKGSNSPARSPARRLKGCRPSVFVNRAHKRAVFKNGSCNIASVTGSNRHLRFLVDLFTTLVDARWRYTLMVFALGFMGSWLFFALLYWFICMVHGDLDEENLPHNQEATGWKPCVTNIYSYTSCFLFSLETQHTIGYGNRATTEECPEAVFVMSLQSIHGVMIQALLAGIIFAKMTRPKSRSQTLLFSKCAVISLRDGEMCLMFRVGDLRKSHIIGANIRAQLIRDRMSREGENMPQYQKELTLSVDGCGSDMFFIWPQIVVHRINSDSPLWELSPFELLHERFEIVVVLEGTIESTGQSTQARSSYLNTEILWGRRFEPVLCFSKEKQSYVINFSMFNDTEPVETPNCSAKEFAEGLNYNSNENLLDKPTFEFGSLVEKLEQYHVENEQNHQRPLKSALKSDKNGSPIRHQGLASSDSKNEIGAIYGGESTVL

[2] = target: T2, AeKir1 (Aedes aegypti, UniProt L0EQS9); experiment: two-electrode voltage clamp in Xenopus oocytes, inhibition of inward current at […]
T2 sequence (L0EQS9 1-486): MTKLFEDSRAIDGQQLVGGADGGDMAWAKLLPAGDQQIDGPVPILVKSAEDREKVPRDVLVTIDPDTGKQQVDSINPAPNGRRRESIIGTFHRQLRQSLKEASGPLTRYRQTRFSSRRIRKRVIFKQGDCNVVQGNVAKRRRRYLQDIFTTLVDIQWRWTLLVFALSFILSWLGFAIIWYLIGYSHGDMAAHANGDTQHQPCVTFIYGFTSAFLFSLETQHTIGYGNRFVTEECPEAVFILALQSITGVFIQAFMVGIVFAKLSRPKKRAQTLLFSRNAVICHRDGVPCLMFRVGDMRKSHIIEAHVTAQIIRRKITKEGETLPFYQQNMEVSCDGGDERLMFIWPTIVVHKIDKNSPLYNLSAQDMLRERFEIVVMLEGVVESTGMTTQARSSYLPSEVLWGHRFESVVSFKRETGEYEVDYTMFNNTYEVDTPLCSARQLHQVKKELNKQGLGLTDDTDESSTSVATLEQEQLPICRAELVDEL

[3] = target: T2, AeKir1; experiment: Tl+-flux assay in T-REx-HEK293 cells expressing AeKir1; also two-electrode voltage clamp in Xenopus oocytes ([…], […] block)

SMILES | % activation at 50 μM [1] [% activation at 50 µM] | % inhibition at 50 μM [2] | IC50 [3] [µM]
Cc1ccc(OCC(O)Cn2c(=N)n(Cc3ccccc3)c3ccccc32)cc1 (stereo not drawn) [VU573] | > 50 | ~ 50 | 
O=[N+]([O-])c1ccc(CN2CCOCCOCCN(Cc3ccc([N+](=O)[O-])cc3)CCOCC2)cc1 [VU590] |  |  | 5.6
